Laboratory results reported in ChEMBL document CHEMBL5360629, “AI-Powered Virtual Screening of Large Compound Libraries Leads to the Discovery of Novel Inhibitors of Sirtuin-1” (J Med Chem, 2023).
The source made the active and inactive calls. No cut-off for these calls is given here.

Columns and labels:
[1] = target: T1, NAD-dependent protein deacetylase sirtuin-1 (Homo sapiens) (UniProt Q96EB6); conditions: dose 20.0 µM
T1 sequence (whole entry): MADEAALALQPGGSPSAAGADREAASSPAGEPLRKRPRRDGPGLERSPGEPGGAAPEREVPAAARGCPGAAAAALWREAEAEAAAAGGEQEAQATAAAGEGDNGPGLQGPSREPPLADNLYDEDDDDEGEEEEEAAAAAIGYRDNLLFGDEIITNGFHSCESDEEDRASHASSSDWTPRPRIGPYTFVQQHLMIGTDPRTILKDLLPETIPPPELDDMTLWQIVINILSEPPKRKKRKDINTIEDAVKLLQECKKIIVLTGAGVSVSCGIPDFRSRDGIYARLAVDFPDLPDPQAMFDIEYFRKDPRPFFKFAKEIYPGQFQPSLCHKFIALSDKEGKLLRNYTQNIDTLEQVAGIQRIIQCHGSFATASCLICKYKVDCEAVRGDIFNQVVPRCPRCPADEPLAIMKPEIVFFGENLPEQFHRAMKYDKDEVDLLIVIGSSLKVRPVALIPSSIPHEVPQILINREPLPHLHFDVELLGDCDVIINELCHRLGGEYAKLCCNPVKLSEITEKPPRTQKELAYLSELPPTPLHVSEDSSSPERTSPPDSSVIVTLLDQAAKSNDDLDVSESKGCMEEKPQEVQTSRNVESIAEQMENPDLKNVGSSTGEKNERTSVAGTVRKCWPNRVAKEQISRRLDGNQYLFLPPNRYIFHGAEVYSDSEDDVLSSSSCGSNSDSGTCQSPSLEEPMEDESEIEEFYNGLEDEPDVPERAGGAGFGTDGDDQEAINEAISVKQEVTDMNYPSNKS
Description: Binding affinity to human recombinant truncated Sirtuin-1 expressed in Escherichia coli assessed as change in melting temperature at 20 uM by SYPRO orange dye based thermal shift assay

[2] = target: Carbonic anhydrase (Homo sapiens) (UniProt P00918+P43166+P00915+P07451+P23280+O43570+Q9ULX7+Q16790+P22748+Q8N1Q1+Q9Y2D0+P35218); experiment: Binding affinity to carbonic anhydrase (unknown origin) assessed as change in melting temperature incubated for 15 mins by Sypro orange staining based thermal scanning analysis; type: protein assay; conditions: dose 0.01-1000 µM
[3] = target: T2, NAD-dependent protein deacetylase sirtuin-1 (Homo sapiens, UniProt Q96EB6); experiment: Inhibition of Sirtuin-1 (unknown origin) incubated for 30 mins by luminogenic SIRT-Glo assay
T2 sequence (Q96EB6 whole entry): T1 sequence (whole entry)

Structure (SMILES)	ΔTm [1]	Activity [2]	IC50 [3]
NC(=O)c1ccc(N2CCN(C(c3ccccc3)c3ccccc3)CC2)c([N+](=O)[O-])c1	1 °C		
COc1ccc(N2CCN(c3nc(-c4ccccc4)nc4ccccc34)CC2)cc1	1.6 °C	inactive	40 µM
O=S(=O)(NCCc1c[nH]c2ccccc12)c1cc(Cl)cc(Cl)c1	1 °C		
O=C(Nc1ccccc1)Nc1ccc(NC(=O)c2ccc(Br)cc2)cc1	2.1 °C		

Results, then the molecule that gave them:

ΔTm [1]	Activity [2]	IC50 [3]	Structure (SMILES)
12.9 °C			O=C(CCc1ccccc1O)NCCc1c[nH]c2ccccc12
2.8 °C			O=C(CCc1c[nH]c2ccccc12)NNC(=O)CCc1c[nH]c2ccccc12
1.8 °C	Dose-Dependent Effect	3.4 µM	O=C(NCCc1c[nH]c2ccccc12)c1ccccc1O
